Where two headings read alike, the source gives them in different places.
Experiments:
[1] = test system: IKBKAP splicing (exon 20 inclusion) in FD fibroblasts GM04663; assay: Secondary assay: IKBKAP splicing analysis by RT-PCR in FD fibroblasts GM04663; assay type: cell-based; details: Homo sapiens, FD fibroblasts GM04663, 24 hours of treatment, read-out: % exon Inclusion Normalized
[2] = test system: FD (familial dysautomonia) IKBKAP minigene, exon 20 inclusion, in HEK293T cells; assay: Primary splicing assay (FD IKBKAP minigene, Firefly/Renilla luciferase reporter in HEK293T); assay type: cell-based, human; details: for EC (maximum kinetin efficacy) / Emax: Homo sapiens, HEK-293T; for EC (maximum kinetin efficacy): HEK293T, read-out: ECk (compound concentration at which the maximum kinetin efficacy (200 μM) is reached)
IKBKAP exon 20 inclusion = assay: In vivo familial dysautonomia mouse model: splicing analysis in tissues; details: 10, 30 and 60 mg/kg/day, 8 days
Procedure: […] Every dosing group and the control group (vehicle) consisted of 6 mice. The mice were given food and water ad libitum, and changes in body weights were monitored on a daily basis. On the eighth day the mice were dosed for the last time and after 1 hour the mice were sacrificed and dissected. Plasma, liver, kidney, heart and brain were collected.
The following solutions were prepared daily: Compound (230) in 10% DMA/45% PEG 300/12% EtOH/33% sterile water; and Compound (270) in 10% DMA/45% PEG 300/12% EtOH/33% sterile water.
[…] Six transgenic mice were fed daily with 10% DMA/45% PEG 300/12% EtOH/33% sterile water solution for the same duration. The mice were given food and water ad libitum, and changes in body weights were monitored on a daily basis. On the eighth day the mice were dosed for the last time and after 1 hour were sacrificed and dissected. Plasma, lungs, muscle, liver, heart, brain, kidney, sciatic nerve, and trigeminal nerve were collected. Splicing was evaluating by RT-PCT and IKAP protein was evaluated using Western Blotting.

[3] = Firefly/Renilla ratio, 24 hours of treatment
[4] = max efficacy in Primary Assay, Firefly/Renilla ratio, kinetin and DMSO as positive and negative controls, 24 hours of treatment, read-out: Emax (%)

SMILES	activation at 0.08 µM [1] [%]	activation at 0.8 µM [1] [%]	EC (maximum kinetin efficacy) [2, 3] [µM]	Emax [2, 4] [%]	also measured
Clc1nc(NCc2ccco2)c2nn[nH]c2n1 [(285)]	0.06	1.46	6.78	115	
Clc1nc(NCc2nccs2)c2nc(OCC3CCO3)[nH]c2n1 (stereo not shown) [(346)]	23.2	58.6	1.42	181	
FC(F)COc1nc2c(NCc3ccncn3)nc(Cl)nc2[nH]1 [(349)]	27.1	95.3	0.29	227	
FC(F)(F)COc1nc2c(NCc3ccco3)nc(Cl)nc2[nH]1 [(270)]	28.7	101	0.59	218	inclusion of exon 20 in C57BI6-FD mouse tissues (FIGS. 1A-6) (IKBKAP exon 20 inclusion): useful for improving inclusion of exon 20
FC(F)(F)COc1nc2c(NCc3nccs3)nc(Cl)nc2[nH]1 [(302)]	23.3	90.8	1.42	176	
Clc1nc(NCc2nccs2)c2nc(OCc3cscn3)[nH]c2n1 [(348)]	49	102	0.7	171	
CCOc1nc2c(NCc3ccncn3)nc(Cl)nc2[nH]1 [(320)]	47.1	103	0.52	208	
FC1(F)CC(COc2nc3c(NCc4nccs4)nc(Cl)nc3[nH]2)C1 [(362)]	63.8	105	0.22	250	
Clc1nc(NCc2ccco2)c2nc(OC3COC3)[nH]c2n1 [(269)]	34.8	102	1.39	119	
CCCOc1nc2c(NCc3nccs3)nc(Cl)nc2[nH]1 [(271)]	62.2	107	0.29	206	
COCCOc1nc2c(NCc3ccncn3)nc(Cl)nc2[nH]1 [(319)]	14.2	77.8	1.56	204	
Clc1nc(NCc2nccs2)c2cc[nH]c2n1 [(107)]	25.6	93.2			Emax ([2]; max efficacy, Firefly only, footnote c: Renilla interference/Firefly only, read-out: Emax (%) Firefly only): 184%; ECk, Firefly only ([2]; Renilla interference/Firefly only (footnote c)): 4.58 µM⁻¹
Clc1nc(NCc2cscn2)c2cc[nH]c2n1 [(372)]	13.4	48.7	3.71	126	
COc1nc2c(NCc3nccs3)nc(Cl)nc2[nH]1 [(230)]	22.3	70	1.5	216	inclusion of exon 20 in C57BI6-FD mouse tissues (FIGS. 1A-6) (IKBKAP exon 20 inclusion): useful for improving inclusion of exon 20
OCCOc1nc2c(NCc3ccco3)nc(Cl)nc2[nH]1 [(275)]	37.2	101	0.75	230	
Clc1nc(NCc2ccncn2)c2nc(C3CC3)[nH]c2n1 [(144)]			7.7	127	
CC(C)(C)OC(=O)N1CC(COc2nc3c(NCc4nccs4)nc(Cl)nc3[nH]2)C1 [(471)]			1.63	149	
Cc1cc(CNc2nc(Cl)nc3[nH]ccc23)ccn1 [(189)]				33	
FC(F)(F)c1ccccc1CNc1ncnc2[nH]cnc12 [(23)]				34	
Fc1cccc(CNc2nc(Cl)nc3[nH]ccc23)n1 [(494)]				14.1	
OCCn1ccc2c(NCc3ccco3)nc(Cl)nc21 [(77)]					Emax ([2]; max efficacy, value marked (RT-PCR), footnote b: Renilla interference, read-out: Emax (%) (RT-PCR)): 321%; ECk (RT-PCR) ([2]; determined by RT-PCR, footnote a Firefly inhibitor, footnote b Renilla interference): 1 to 10 µM
Clc1nc(NCc2ccnnc2)c2cc[nH]c2n1 [(176)]				48	
Clc1nc(NCc2ccco2)c2nc(-c3cccnc3)[nH]c2n1 [(88)]				33	
CCOc1nc2c(NCc3ccco3)nc(Cl)nc2[nH]1 [(233)]			1.59	152	
Cn1c(=O)[nH]c2nc(Cl)nc(NCc3nccs3)c21 [(470)]				76.8	
FC(F)(F)CCOc1nc2c(NCc3cscn3)nc(Cl)nc2[nH]1 [(499)]			1.67	156	

SMILES	activation at 0.08 µM [1] [%]	activation at 0.8 µM [1] [%]	EC (maximum kinetin efficacy) [2, 3] [µM]	Emax [2, 4] [%]	also measured
Clc1nc(NCc2nccs2)c2nc(OC3COC3)[nH]c2n1 [(265)]			7.33	119	
CNC(=O)Cn1ccc2c(NCc3ccco3)nc(Cl)nc21 [(161)]				65	
Cn1cnc2nc(Cl)nc(NCc3ccncn3)c21 [(316)]			7.09	108	
Clc1nc(NCc2csnn2)c2cc[nH]c2n1 [(498)]				37.7	
FC(F)COc1nc2c(NCc3nccs3)nc(Cl)nc2[nH]1 [(347)]	18.3	72	0.77	186	
CN(C)C(=O)Cn1ccc2c(NCc3ccco3)nc(Cl)nc21 [(153)]				20	
Clc1nc(NCc2ccco2)c2nc(OCC3CCCC3)[nH]c2n1 [(338)]			1.1	222	
Clc1cc(NCc2ccco2)n2ncnc2n1 [(284)]				27	
O[C@H]1C=C[C@H](n2ccc3c(NCc4ccco4)nc(Cl)nc32)C1 [(132)]					Emax ([2]; max efficacy, value marked (RT-PCR), footnote a: Firefly inhibitor, read-out: Emax (%) (RT-PCR)): 67.7%
Cc1nc2c(NCc3ccco3)nc(Cl)nc2[nH]1 [(90)]			11.8	159	
Clc1cc(NCc2ccncc2)n2ncnc2n1 [(283)]				29	
Clc1nc(NCc2ccncc2)c2ncsc2n1 [(256)]			17.4	129	
FC1(F)CC(COc2nc3c(NCc4ccco4)nc(Cl)nc3[nH]2)C1 [(387)]			0.33	238	
OCCn1ccc2c(NCc3ccncc3)nc(Cl)nc21 [(122)]			5.65	256	
O=C(O)COc1nc2c(NCc3nccs3)nc(Cl)nc2[nH]1 [(511)]				35.1	
Cc1c[nH]c2nc(Cl)nc(NCc3ccncc3)c12 [(120)]			2.75	166	
Clc1nc(NCc2ccccn2)c2nc[nH]c2n1 [(356)]				17	
COc1nc2c(NCc3ccncn3)nc(Cl)nc2n1CCO [(300)]			10	84	
CC(Nc1nc(Cl)nc2[nH]cnc12)c1ccncc1 (stereo not shown) [(366)]				19.2	
CC(=O)NCCn1ccc2c(NCc3ccco3)nc(Cl)nc21 [(203)]					Emax ([2]; max efficacy in Primary Assay, value flagged footnote a: Firefly inhibitor, read-out: Emax (%)): 27%
CSc1nc2c(NCc3ccncn3)nc(Cl)nc2[nH]1 [(303)]			1.51	243	
Cc1cc2c(NCc3ccncn3)nc(Cl)nc2[nH]1 [(136)]			7.52	143	
CC(Nc1nc(Cl)nc2[nH]cnc12)c1nccs1 (stereo not shown) [(368)]				2.4	
Clc1nc(NCc2nccs2)c2nc(OCCOc3ccccc3)[nH]c2n1 [(401)]				41.2	
FCCn1ccc2c(NCc3ccncc3)nc(Cl)nc21 [(194)]			4.49	241	

Source: US11702417B2, “Compounds for improving mRNA splicing” (The General Hospital Corporation, priority 2015, dated 2023)
